This note sets out measurements from US10457654B2 (GENENTECH, INC., priority 2017, dated 2019).

Counter-ions that a name gives are not always drawn.

The first assay deals with hNav1.7 (Homo sapiens (Human), UniProt Q15858). Briefly: Tritiated compound binding to membranes from cells expressing hNav1.7 and the β1 subunit, competitive binding (LBA, Ex. 243A). Particulars: 100 pM [3H]compound, 18 h, room temperature; read-out: Nav1.7 (LBA) (Ex. 243A). The procedure: Tritiated Compound Binding to Membranes Isolated from Cells that Heterologously Express hNav1.7 and the β1 Subunit
hNav1.7, sequence (Q15858 whole entry, looked up): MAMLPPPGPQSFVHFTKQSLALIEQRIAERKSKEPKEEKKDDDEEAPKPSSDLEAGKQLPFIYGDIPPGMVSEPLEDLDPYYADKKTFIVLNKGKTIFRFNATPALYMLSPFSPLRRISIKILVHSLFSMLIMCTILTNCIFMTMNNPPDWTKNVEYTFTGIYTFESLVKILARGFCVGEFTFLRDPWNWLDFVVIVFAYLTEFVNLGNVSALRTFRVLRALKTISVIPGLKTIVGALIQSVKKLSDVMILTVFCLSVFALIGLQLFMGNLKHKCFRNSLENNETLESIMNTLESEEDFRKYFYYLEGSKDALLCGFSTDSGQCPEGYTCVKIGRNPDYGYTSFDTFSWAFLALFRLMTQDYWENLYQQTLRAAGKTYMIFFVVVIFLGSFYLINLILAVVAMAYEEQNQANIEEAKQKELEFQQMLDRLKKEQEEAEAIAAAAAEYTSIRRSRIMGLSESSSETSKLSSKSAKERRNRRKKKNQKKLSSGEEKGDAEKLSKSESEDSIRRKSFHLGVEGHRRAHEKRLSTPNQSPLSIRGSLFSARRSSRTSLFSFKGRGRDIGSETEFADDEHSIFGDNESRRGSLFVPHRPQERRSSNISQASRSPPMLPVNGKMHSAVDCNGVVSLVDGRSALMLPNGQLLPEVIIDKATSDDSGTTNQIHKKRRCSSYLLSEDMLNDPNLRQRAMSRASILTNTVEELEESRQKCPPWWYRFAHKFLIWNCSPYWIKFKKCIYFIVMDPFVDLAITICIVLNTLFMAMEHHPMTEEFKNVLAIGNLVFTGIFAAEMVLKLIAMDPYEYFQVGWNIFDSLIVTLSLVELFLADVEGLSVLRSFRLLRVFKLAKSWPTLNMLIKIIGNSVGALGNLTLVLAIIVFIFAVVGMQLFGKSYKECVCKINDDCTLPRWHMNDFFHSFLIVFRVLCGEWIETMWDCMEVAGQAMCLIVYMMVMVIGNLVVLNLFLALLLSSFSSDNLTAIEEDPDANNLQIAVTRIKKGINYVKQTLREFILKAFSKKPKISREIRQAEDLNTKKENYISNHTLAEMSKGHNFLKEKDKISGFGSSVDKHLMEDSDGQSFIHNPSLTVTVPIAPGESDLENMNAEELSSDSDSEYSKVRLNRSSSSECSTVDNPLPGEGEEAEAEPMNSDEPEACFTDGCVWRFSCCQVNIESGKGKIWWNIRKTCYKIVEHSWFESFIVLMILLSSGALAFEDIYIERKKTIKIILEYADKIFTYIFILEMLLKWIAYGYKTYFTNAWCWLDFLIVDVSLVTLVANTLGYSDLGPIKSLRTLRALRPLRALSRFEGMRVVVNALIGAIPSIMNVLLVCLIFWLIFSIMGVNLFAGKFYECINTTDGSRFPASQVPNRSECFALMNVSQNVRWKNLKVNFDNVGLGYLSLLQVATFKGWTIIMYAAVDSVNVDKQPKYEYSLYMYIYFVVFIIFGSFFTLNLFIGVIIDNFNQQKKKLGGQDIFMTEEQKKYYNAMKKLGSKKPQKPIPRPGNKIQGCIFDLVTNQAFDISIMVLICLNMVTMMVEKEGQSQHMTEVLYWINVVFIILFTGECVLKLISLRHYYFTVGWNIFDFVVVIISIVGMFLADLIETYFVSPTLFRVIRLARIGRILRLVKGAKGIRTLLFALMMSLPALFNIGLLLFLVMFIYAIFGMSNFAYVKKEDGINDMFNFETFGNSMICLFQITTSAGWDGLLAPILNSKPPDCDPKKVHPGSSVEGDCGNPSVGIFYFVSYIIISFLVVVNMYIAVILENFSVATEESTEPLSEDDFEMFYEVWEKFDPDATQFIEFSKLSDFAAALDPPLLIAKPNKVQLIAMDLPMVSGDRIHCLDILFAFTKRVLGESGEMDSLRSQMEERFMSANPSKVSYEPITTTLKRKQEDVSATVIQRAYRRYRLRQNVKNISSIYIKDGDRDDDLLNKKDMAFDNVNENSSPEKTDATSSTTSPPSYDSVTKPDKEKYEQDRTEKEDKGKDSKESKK
hNav1.7, sequence (Q07699 whole entry partner, looked up): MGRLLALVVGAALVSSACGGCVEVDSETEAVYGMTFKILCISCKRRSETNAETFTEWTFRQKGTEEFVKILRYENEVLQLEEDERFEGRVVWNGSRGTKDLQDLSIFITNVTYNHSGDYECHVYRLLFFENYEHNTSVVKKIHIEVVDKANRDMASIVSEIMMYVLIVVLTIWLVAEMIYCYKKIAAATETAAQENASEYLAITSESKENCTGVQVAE
Preparation of membranes containing recombinantly expressed sodium channels: Frozen recombinant cell pellets were thawed on ice and diluted to 4 times the cell pellet weight with ice cold 50 mM Tris HCl, pH 7.4 buffer. The cell suspensions were homogenized on ice using a motorized glass dounce homogeniser. Homogenates were further diluted 8.4 times with ice cold 50 mM Tris HCl, pH 7.4 buffer and then centrifuged at 200×g at 4° C. for 15 min. The supernatants were collected and centrifuged at 10000×g at 4° C. for 50 min. […] The homogenized membranes were then processed through a syringe equipped with a 26 gauge needle. Protein concentrations were determined by Bradford Assay and the membranes were stored at −80° C.
Radioligand Binding Studies: Saturation experiments. A competitive NaV1.7 inhibitor having a methyl group was tritiated. Three tritiums were incorporated in place of methyl hydrogens to generate [^3H]compound. Binding of this radioligand was performed in 5 mL borosilicate glass test tubes at room temperature. […] Non-specific binding was determined in the presence of 1 μM unlabeled compound. After 18h, the reactants were filtered through GF/C glass fiber filters presoaked in 0.5% w/v polyethylene imine. […] [^3H]compound bound to filters was quantified by liquid scintillation counting.
Competitive binding experiments: Binding reactions were performed in 96-well polypropylene plates at room temperature for 18h. In 360 μL, membranes were incubated with 100 pM [^3H]compound and increasing concentrations of Test Compound. Non-specific binding was defined in the presence of 1 μM unlabeled compound. Reactions were transferred and filtered through 96-well glass fiber/C filter plates presoaked with 0.5% polyethylene imine. The filtered reactions were washed 5 times with 200 μL ice cold buffer containing 0.25% BSA. Bound radioactivity was determined by liquid scintillation counting.
Data Analysis: For saturation experiments, non-specific binding was subtracted from total binding to provide specific binding and these values were recalculated in terms of pmol ligand bound per mg protein. Saturation curves were constructed and dissociation constants were calculated using the single site ligand binding model: Beq=(Bmax*X)/(X+Kd), where Beq is the amount of ligand bound at equilibrium, Bmax is the maximum receptor density, Kd is the dissociation constant for the ligand, and X is the free ligand concentration. For competition studies percent inhibition was determined and IC50 values were calculated using a 4 parameter logistic model (% inhibition=(A+((B−A)/(1+((x/C)^D)))) using XLfit, where A and B are the maximal and minimum inhibition respectively, C is the IC50 concentration and D is the (Hill) slope.
Turning to `CN(C)[C@@H]1CCC[C@H]1Oc1cc(F)c(S(=O)(=O)Nc2nccs2)cc1Cl` [Example 10, 5-chloro-4-(((1R,2R)-2-(dimethylamino)cyclopentyl)oxy)-2-fluoro-N-(thiazol-2-yl)benzenesulfonamide], the IC50 stood at 553 nM. Take `CCN[C@H]1CCCC[C@@H]1Nc1cc(F)c(S(=O)(=O)Nc2nccs2)cc1Cl` [Example 4, 2,2,2-trifluoroacetate]: the IC50 is 4.15 nM.

As to `CN(C)[C@H]1CCC[C@@H]1Nc1cc(F)c(S(=O)(=O)Nc2nccs2)cc1Cl` [Example 12, 5-chloro-4-(((1S,2S)-2-(dimethylamino)cyclopentyl)amino)-2-fluoro-N-(thiazol-2-yl)benzenesulfonamide], the IC50 turned out to be 165 nM. Turning to `CN(C)[C@H]1CCCC[C@@H]1Nc1cc(F)c(S(=O)(=O)Nc2nccs2)cc1Cl` [Example 2, 5-chloro-4-(((1S,2S)-2-(dimethylamino)cyclohexyl)amino)-2-fluoro-N-(thiazol-2-yl)benzenesulfonamide], the IC50 turned out to be 38.2 nM. As for `N[C@H]1CCCC[C@@H]1Nc1cc(F)c(S(=O)(=O)Nc2nccs2)cc1Cl` [Example 1, 4-(((1S,2S)-2-aminocyclohexyl)amino)-5-chloro-2-fluoro-N-(thiazol-2-yl)benzenesulfonamide], the IC50 is 197 nM. Regarding `CN(C)[C@H]1CCCC[C@@H]1Oc1cc(F)c(S(=O)(=O)Nc2nccs2)cc1Cl` [Example 7, 5-chloro-4-(((1S,2S)-2-(dimethylamino)cyclohexyl)oxy)-2-fluoro-N-(thiazol-2-yl)benzenesulfonamide], the IC50 was determined as 89.9 nM.

Still in this assay, the particulars now being: 100 pM [3H]compound, 18 h, room temperature; read-out: Nav1.7 LBA (Ex. 243A) IC50.
Regarding `CN(C)[C@H]1CCCC[C@@H]1Nc1cc(F)c(S(=O)(=O)Nc2nccs2)cc1C(F)(F)F` [Example 65, 4-(((1S,2S)-2-(dimethylamino)cyclohexyl)amino)-2-fluoro-N-(thiazol-2-yl)-5-(trifluoromethyl)benzenesulfonamide], the IC50 came out at 29.3 nM. For `CN(CCO)[C@H]1CCCC[C@@H]1Nc1cc(F)c(S(=O)(=O)Nc2nccs2)cc1C1CC1` [Example 56, 5-cyclopropyl-2-fluoro-4-(((1S,2S)-2-((2-hydroxyethyl)(methyl)amino)cyclohexyl)amino)-N-(thiazol-2-yl)benzenesulfonamide hydrochloride], the IC50 stood at 3.46 nM. Turning to `CNCCN(C)[C@H]1CCCC[C@@H]1Nc1cc(F)c(S(=O)(=O)Nc2nccs2)cc1Cl` [Example 58, 5-chloro-2-fluoro-4-(((1S,2S)-2-(methyl(2-(methylamino)ethyl)amino)cyclohexyl)amino)-N-(thiazol-2-yl)benzenesulfonamide formate], the IC50 is 3.42 nM. As for `CN(C)[C@H]1CC[C@@H](c2cccc(C(F)(F)F)c2)C[C@@H]1Nc1cc(F)c(S(=O)(=O)Nc2nccs2)cc1Cl` [Example 88, 5-chloro-4-(((1S,2S,5R)-2-(dimethylamino)-5-(3-(trifluoromethyl)phenyl)cyclohexyl)amino)-2-fluoro-N-(thiazol-2-yl)benzenesulfonamide], the IC50 is 201 nM. Consider `CCN[C@H]1CCCC[C@@H]1Oc1cc(F)c(S(=O)(=O)Nc2nccs2)cc1Cl` [Example 42, 5-chloro-4-(((1S,2S)-2-(ethylamino)cyclohexyl)oxy)-2-fluoro-N-(thiazol-2-yl)benzenesulfonamide], for which the IC50 is 27.2 nM.

Take `CN(C[C@H](O)C(F)(F)F)[C@H]1CCCC[C@@H]1Nc1cc(F)c(S(=O)(=O)Nc2nccs2)cc1Cl` [Example 94, 5-chloro-2-fluoro-4-(((1S,2S)-2-(methyl((S)-3,3,3-trifluoro-2-hydroxypropyl)amino)cyclohexyl)amino)-N-(thiazol-2-yl)benzenesulfonamide]: the IC50 is 31.3 nM. The same measure, in the same setting: under `CN(C)[C@H]1CCCC[C@@H]1Nc1ccc(S(=O)(=O)Nc2nccs2)cc1[N+](=O)[O-]` [Example 28, 4-(((1S,2S)-2-(dimethylamino)cyclohexyl)amino)-3-nitro-N-(thiazol-2-yl)benzenesulfonamide] stands 199 nM; under `CN(C)[C@@H]1C[C@H](C(F)(F)F)CC[C@H]1Nc1cc(F)c(S(=O)(=O)Nc2nccs2)cc1Cl` [Example 36, 5-chloro-4-(((1R,2R,4R)-2-(dimethylamino)-4-(trifluoromethyl)cyclohexyl)amino)-2-fluoro-N-(thiazol-2-yl)benzenesulfonamide], 93.6 nM; under `CN[C@H]1CCCC[C@@H]1Nc1cc(F)c(S(=O)(=O)Nc2cccc(F)n2)cc1Cl` [Example 74, 5-chloro-2-fluoro-N-(6-fluoropyridin-2-yl)-4-(((1S,2S)-2-(methylamino)cyclohexyl)amino)benzenesulfonamide], 91.7 nM. As to `CN(C)[C@H]1CCCC[C@@H]1Nc1cc(F)c(S(=O)(=O)Nc2ncc(F)s2)cc1Cl` [Example 49, 5-chloro-4-(((1S,2S)-2-(dimethylamino)cyclohexyl)amino)-2-fluoro-N-(5-fluorothiazol-2-yl)benzenesulfonamide], the IC50 worked out at 42.1 nM.

In the case of `CCN[C@H]1CCCC[C@@H]1Nc1cc(F)c(S(=O)(=O)Nc2nccs2)cc1Br` [Example 52, 5-bromo-4-(((1S,2S)-2-(ethylamino)cyclohexyl)amino)-2-fluoro-N-(thiazol-2-yl)benzenesulfonamide formate], the IC50 was found to be 8.48 nM. As to `CN(CCO)[C@H]1CCCC[C@@H]1Nc1cc(F)c(S(=O)(=O)Nc2ccncn2)cc1Cl` [Example 89, 5-chloro-2-fluoro-4-(((1S,2S)-2-((2-hydroxyethyl)(methyl)amino)cyclohexyl)amino)-N-(pyrimidin-4-yl)benzenesulfonamide formate], the IC50 stood at 59.9 nM. Consider `CN(CC(N)=O)[C@H]1CCCC[C@@H]1Nc1cc(F)c(S(=O)(=O)Nc2nccs2)cc1Cl` [Example 79, 2-(((1S,2S)-2-((2-chloro-5-fluoro-4-(N-(thiazol-2-yl)sulfamoyl)phenyl)amino)cyclohexyl)(methyl)amino)acetamide formate], for which the IC50 was 9.28 nM. On the same count and under the same terms, the result for `O=S(=O)(Nc1cccc(F)n1)c1cc(Cl)c(N[C@H]2CCCC[C@@H]2N2CCC(O)C2)cc1F` (stereo partly drawn) [Example 62, 5-chloro-2-fluoro-N-(6-fluoropyridin-2-yl)-4-(((1S,2S)-2-(3-hydroxypyrrolidin-1-yl)cyclohexyl)amino)benzenesulfonamide] reads 57.8 nM; that for `O=S(=O)(Nc1cccc(F)n1)c1cc(Cl)c(N[C@@H]2CCCC[C@H]2N2CCCC2)cc1F` [Example 98, 5-chloro-2-fluoro-N-(6-fluoropyridin-2-yl)-4-(((1R,2R)-2-(pyrrolidin-1-yl)cyclohexyl)amino)benzenesulfonamide], 3000 nM. Regarding `CN(CCF)[C@H]1CCCC[C@@H]1Nc1cc(F)c(S(=O)(=O)Nc2nccs2)cc1Cl` [Example 37, 5-chloro-2-fluoro-4-(((1S,2S)-2-((2-fluoroethyl)(methyl)amino)cyclohexyl)amino)-N-(thiazol-2-yl)benzenesulfonamide formate], the IC50 is 2.76 nM. As to `CN(CC1CC1)[C@H]1CCCC[C@@H]1Nc1cc(F)c(S(=O)(=O)Nc2nccs2)cc1Cl` [Example 31, 5-chloro-4-(((1S,2S)-2-((cyclopropylmethyl)(methyl)amino)cyclohexyl)amino)-2-fluoro-N-(thiazol-2-yl)benzenesulfonamide], the IC50 came out at 163 nM.
